Measured values taken from doi:10.1101/2025.08.05.668571v1, “Preliminary Study on the Mechanisms of Cytokinin and Its Receptor Binding Diversity” (biorxiv, 2025).

Molecular target: T1, AHK4^CD (6×His-AHK4^CD-GFP) (Arabidopsis thaliana, UniProt Q9C5U0)
T1 construct: extracellular CHASE domain, residues 126-395; N-terminal 6×His via linker, C-terminal GFP, tags kept; pRSF-Duet, E. coli Rosetta (BL21), Ni-NTA
T1 sequence (Q9C5U0 149-418): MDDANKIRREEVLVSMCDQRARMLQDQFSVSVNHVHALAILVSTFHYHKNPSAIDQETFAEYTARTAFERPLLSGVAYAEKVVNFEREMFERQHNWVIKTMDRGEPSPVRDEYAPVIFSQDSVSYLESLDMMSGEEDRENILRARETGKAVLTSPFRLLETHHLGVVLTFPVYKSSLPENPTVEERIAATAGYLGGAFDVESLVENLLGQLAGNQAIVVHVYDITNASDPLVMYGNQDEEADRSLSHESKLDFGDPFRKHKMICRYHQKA
Assay: microscale thermophoresis (MST), GFP-tagged target
Type: binding

SMILES | Kd [nM]
c1ccc(CNc2ncnc3nc[nH]c23)cc1 [6-BA] | 27.7 ± 20.7
CC(C)=CCNc1ncnc2nc[nH]c12 [2iP] | 540 ± 262
